Molecular target: T1, human CRTH2 (Homo sapiens, UniProt Q9Y5Y4)
T1 construct: expressed in transfected cells
T1 sequence (Q9Y5Y4 1-395): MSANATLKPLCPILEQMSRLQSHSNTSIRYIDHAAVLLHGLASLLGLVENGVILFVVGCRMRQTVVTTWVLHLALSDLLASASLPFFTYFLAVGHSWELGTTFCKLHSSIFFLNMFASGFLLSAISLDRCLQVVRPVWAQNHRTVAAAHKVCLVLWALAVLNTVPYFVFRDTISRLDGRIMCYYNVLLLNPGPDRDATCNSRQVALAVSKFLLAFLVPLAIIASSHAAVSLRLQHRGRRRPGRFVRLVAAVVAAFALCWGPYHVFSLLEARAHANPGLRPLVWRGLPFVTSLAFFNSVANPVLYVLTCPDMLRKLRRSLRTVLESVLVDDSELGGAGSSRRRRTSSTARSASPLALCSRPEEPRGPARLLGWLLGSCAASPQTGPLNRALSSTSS
Assay: Human CRTH2 Receptor Binding Assay (whole cell, [3H]ramatroban competition)
Settings: CHO-K1 cells stably expressing human CRTH2 and G-alpha16; 20 nM [3H]ramatroban; 1 hour, room temperature
Text: A whole cell receptor binding assay using [^3H]ramatroban as the competing radioactive ligand was employed to evaluate the compound binding activity to human CRTH2. The radioactive ligand [^3H]ramatroban was synthesized according to Sugimoto et. al. (Eur. J. Pharmacol. 524, 30-37, 2005) to a specific activity of 42 Ci/mmol.
A cell line stably expressing human CRTH2 was established by transfecting CHO-K1 cells with two mammalian expression vectors that harbored human CRTH2 and G-alpha16 cDNAs, respectively, using FuGene® 6 transfection reagent (from Roche). Stable clones expressing CRTH2 were selected by staining each clone with BM16 (BD Pharmingen™ from BD Biosciences, a division of Becton, Dickinson and Company), which is a rat monoclonal antibody to human CRTH2. The cells were maintained as monolayer cultures in Ham's F-12 medium containing 10% fetal bovine serum, 100 units/mL penicillin, 100 μg/mL streptomycin, 2 mM glutamine, 0.5 mg/mL G418 (geneticin) for CRTH2, and 0.2 mg/mL hygromycin-B (for G-alpha 16). For whole cell receptor binding assay, the monolayer cells were rinsed once with PBS (phosphate buffered saline), dissociated using ethylenediaminetetraacetate (Versene™ EDTA from Lonza Inc.), and suspended in PBS containing 10 mM MgCl2 and 0.06% BSA (bovine serum albumin) at 1.5×10^6 cells/mL.
The binding reactions (0.2 mL) were performed in 96-well plates at room temperature in PBS containing 1.5×10^5 cells, 10 mM MgCl2, 0.06% BSA, 20 nM [^3H]ramatroban, and test compound at various concentrations. After 1 hour of binding reactions, the cells were harvested on GF™/B filter microplates (microtiter plates with embedded glass fiber from PerkinElmer, Inc.) and washed 5 times with PBS using a Filtermate™ Harvester (a cell harvester that harvests and washes cells from microplates from PerkinElmer, Inc.). The radioactivities bound to the cells were determined using a microplate scintillation counter (TopCount® NXT, from PerkinElmer, Inc.) after adding 50 μL of Microscint™ 20 scintillation fluid (from PerkinElmer, Inc.) to each well of the filter plates. The radioactivity from non-specific binding was determined by replacing compound with 10 μM of 15(R)-15-methyl PGD2 (from Cayman Chemical Company) in the reaction mixtures. The radioactivity bound to the cells in the absence of compound (total binding) was determined by replacing compound with 0.25% of DMSO (dimethyl sulfoxide) in the reaction mixture. Specific binding data were obtained by subtracting the radioactivity of non-specific binding from each binding data.
The IC50 value is defined as the concentration of the tested compound that is required for 50% inhibition of total specific binding. In order to calculate the IC50 value, the percent inhibition data were determined for 7 concentrations for each compound. The percent inhibition for a compound at each concentration was calculated according to the following formula, [1−(specific binding in the presence of compound)/(total specific binding)]×100. The IC50 value was then obtained by fitting the percent inhibition data to a sigmoidal dose-response (4 parameter logistic) model in the XLfit® software Excel add-in program [from ID Business Solutions Ltd., model 205, where F(x)=(A+(B−A)/(1+((C/x)^D)))].

In the case of `CCOc1ncc(S(=O)(=O)NC2CCCc3c2cnn3CC(=O)O)cc1Br` (stereo not shown) [Example 3-2a, [4-(5-Bromo-6-ethoxy-pyridine-3-sulfonylamino)-4,5,6,7-tetrahydro-indazol-1-yl]-acetic acid], the IC50 is reported as 370 nM.
`O=C(O)Cn1ncc2c1CCCC2NS(=O)(=O)c1cnc(OC2CCCC2)c(Br)c1` (stereo not shown) [Example 3-3a, [4-(5-Bromo-6-cyclopentyloxy-pyridine-3-sulfonylamino)-4,5,6,7-tetrahydro-indazol-1-yl]-acetic acid] gave an IC50 of 10.3 nM.
Compound `CC(C)Oc1cc(C(F)(F)F)cc(S(=O)(=O)NC2CCCc3c2cnn3CC(=O)O)c1` (stereo not shown) [Example 3-4a, [4-(3-Isopropoxy-5-trifluoromethyl-benzenesulfonylamino)-4,5,6,7-tetrahydro-indazol-1-yl]-acetic acid] has an IC50 of 194 nM.
Compound `CN([C@@H]1CCCc2c1cnn2CC(=O)O)S(=O)(=O)c1ccc(OC2CCCC2)c(Cl)c1` [Example 4-1a, {(R)-4-[(3-Chloro-4-cyclopentyloxy-benzenesulfonyl)-methyl-amino]-1-4,5,6,7-tetrahydro-indazol-1-yl}-acetic acid] has an IC50 of 99.2 nM.
In the case of `CN([C@@H]1CCCc2c1cnn2CC(=O)O)S(=O)(=O)c1cnc(OC2CCC2)c(Br)c1` [Example 4-2a, {(R)-4-[(5-Bromo-6-cyclobutoxy-pyridine-3-sulfonyl)-methyl-amino]-4,5,6,7-tetrahydro-indazol-1-yl}-acetic acid], the IC50 is reported as 39.1 nM.
Compound `CC(C)Oc1ncc(S(=O)(=O)N(C)[C@@H]2CCCc3c2cnn3CC(=O)O)cc1Br` [Example 4-3a, {(R)-4-[(5-Bromo-6-isopropoxy-pyridine-3-sulfonyl)-methyl-amino]-4,5,6,7-tetrahydro-indazol-1-yl}-acetic acid] has an IC50 of 37.2 nM.
Compound `CN([C@@H]1CCCc2c1cnn2CC(=O)O)S(=O)(=O)c1cnc(OC2CCOCC2)c(Br)c1` [Example 4-4a, ((R)-4-{[5-Bromo-6-(tetrahydro-pyran-4-yloxy)-pyridine-3-sulfonyl]-methyl-amino}-4,5,6,7-tetrahydro-indazol-1-yl)-acetic acid] has an IC50 of 53.9 nM.
Work on `CS(=O)(=O)c1cc(C(F)(F)F)cc(S(=O)(=O)N[C@@H]2CCCc3c2cnn3CC(=O)O)c1` [Example 5-1a, [(R)-4-(3-Methanesulfonyl-5-trifluoromethyl-benzenesulfonylamino)-4,5,6,7-tetra-hydro-indazol-1-yl]-acetic acid] yielded an IC50 of 3.1 nM.
With `CN([C@@H]1CCCc2c1cnn2CC(=O)O)S(=O)(=O)c1cc(C(F)(F)F)cc(S(C)(=O)=O)c1` [Example 6-1a, {(R)-4-[(3-Methanesulfonyl-5-trifluoromethyl-benzenesulfonyl)-methyl-amino]-4,5,6,7-tetrahydro-indazol-1-yl}-acetic acid] the IC50 was 2.5 nM.
`CCS(=O)(=O)c1cc(C(F)(F)F)cc(S(=O)(=O)N[C@@H]2CCCc3c2cnn3CC(=O)O)c1` [Example 7-1a, [(R)-4-(3-Ethanesulfonyl-5-trifluoromethyl-benzenesulfonylamino)-4,5,6,7-tetrahydro-indazol-1-yl]-acetic acid] was tested, and the IC50 was 2.6 nM.
With `O=C(O)Cn1ncc2c1CCC[C@H]2NS(=O)(=O)c1cc(C(F)(F)F)cc(S(=O)(=O)C2CCCC2)c1` [Example 7-2a, [(R)-4-(3-Cyclopentane-sulfonyl-5-trifluoromethyl-benzenesulfonylamino)-4,5,6,7-tetrahydro-indazol-1-yl]-acetic acid] the IC50 was 2.9 nM.
For `CC[S+]([O-])c1cc(C(F)(F)F)cc(S(=O)(=O)N(C)[C@@H]2CCCc3c2cnn3CC(=O)O)c1` (stereo partly drawn) [Example 8-1a, {(R)-4-[(3-Ethanesulfinyl-5-trifluoromethyl-benzenesulfonyl)-methyl-amino]-4,5,6,7-tetrahydro-indazol-1-yl}-acetic acid], the IC50 was 3.3 nM.
`CN([C@@H]1CCCc2c1cnn2CC(=O)O)S(=O)(=O)c1cc(SC2CCCC2)cc(C(F)(F)F)c1` [Example 9-1a, {(R)-4-[(3-Cyclopentylsulfanyl-5-trifluoromethyl-benzenesulfonyl)-methyl-amino]-4,5,6,7-tetrahydro-indazol-1-yl}-acetic acid] showed an IC50 of 12.6 nM.
